Experimental data from patent US11045455B2, “Azetidine derivative, preparation method therefor, and use thereof” (SICHUAN KELUN-BIOTECH BIOPHARMACEUTICAL CO., LTD., priority 2016, dated 2021).

Assays:
[1] = biological target: JAK3 (Homo sapiens (Human), UniProt P52333); assay: JAK3 enzymatic inhibition assay (ADP-Glo luminescence); assay type: biochemical
Source text: (§1) Experimental Example 1: JAK1, JAK2, JAK3 and TYK2 Enzymatic Inhibition Assay

[2] = biological target: TYK2 (Homo sapiens (Human), UniProt P29597); assay: TYK2 enzymatic inhibition assay (LanthaScreen TR-FRET); assay type: biochemical
Sequence of TYK2 (P29597 whole entry): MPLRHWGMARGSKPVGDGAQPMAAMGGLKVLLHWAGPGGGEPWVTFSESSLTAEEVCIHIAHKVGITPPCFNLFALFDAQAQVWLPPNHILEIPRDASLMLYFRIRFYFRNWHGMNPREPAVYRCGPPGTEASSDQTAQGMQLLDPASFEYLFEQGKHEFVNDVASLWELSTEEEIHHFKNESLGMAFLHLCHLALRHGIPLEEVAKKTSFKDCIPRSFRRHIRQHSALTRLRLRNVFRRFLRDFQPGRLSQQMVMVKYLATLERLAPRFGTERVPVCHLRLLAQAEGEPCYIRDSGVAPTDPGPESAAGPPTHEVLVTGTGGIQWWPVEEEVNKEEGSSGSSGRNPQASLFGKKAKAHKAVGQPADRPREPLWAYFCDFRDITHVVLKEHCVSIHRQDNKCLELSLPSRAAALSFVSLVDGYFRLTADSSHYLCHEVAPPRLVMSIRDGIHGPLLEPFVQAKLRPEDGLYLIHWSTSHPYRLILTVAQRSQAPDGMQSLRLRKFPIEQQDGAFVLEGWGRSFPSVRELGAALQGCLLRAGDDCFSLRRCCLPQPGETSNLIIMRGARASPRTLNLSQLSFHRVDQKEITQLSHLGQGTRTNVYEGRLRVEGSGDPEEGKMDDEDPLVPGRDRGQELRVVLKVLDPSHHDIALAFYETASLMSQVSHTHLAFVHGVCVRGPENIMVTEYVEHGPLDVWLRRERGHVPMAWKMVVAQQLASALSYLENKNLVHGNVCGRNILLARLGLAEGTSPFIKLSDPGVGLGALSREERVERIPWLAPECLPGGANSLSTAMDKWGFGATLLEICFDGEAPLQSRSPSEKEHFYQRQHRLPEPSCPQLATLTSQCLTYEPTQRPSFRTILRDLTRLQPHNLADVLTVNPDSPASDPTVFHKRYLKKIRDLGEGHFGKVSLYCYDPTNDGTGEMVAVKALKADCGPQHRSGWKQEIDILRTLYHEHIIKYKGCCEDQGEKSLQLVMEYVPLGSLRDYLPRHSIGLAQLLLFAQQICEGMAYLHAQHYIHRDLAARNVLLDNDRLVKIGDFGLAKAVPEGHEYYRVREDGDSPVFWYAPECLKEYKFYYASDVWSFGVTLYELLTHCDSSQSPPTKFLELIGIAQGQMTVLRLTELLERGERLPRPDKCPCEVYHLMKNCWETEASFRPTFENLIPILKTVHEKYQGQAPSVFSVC
Method: as §1
As for the TYK2 enzyme, Tb-anti-pSTAT1 was added, and incubation at room temperature was performed.

[3] = biological target: hERG potassium channel (Homo sapiens (Human), UniProt Q12809); assay: Predictor hERG Fluorescence Polarization Assay; assay type: binding; conditions: tested at 3, 10 and 30 μM
Sequence of hERG potassium channel (Q12809 whole entry): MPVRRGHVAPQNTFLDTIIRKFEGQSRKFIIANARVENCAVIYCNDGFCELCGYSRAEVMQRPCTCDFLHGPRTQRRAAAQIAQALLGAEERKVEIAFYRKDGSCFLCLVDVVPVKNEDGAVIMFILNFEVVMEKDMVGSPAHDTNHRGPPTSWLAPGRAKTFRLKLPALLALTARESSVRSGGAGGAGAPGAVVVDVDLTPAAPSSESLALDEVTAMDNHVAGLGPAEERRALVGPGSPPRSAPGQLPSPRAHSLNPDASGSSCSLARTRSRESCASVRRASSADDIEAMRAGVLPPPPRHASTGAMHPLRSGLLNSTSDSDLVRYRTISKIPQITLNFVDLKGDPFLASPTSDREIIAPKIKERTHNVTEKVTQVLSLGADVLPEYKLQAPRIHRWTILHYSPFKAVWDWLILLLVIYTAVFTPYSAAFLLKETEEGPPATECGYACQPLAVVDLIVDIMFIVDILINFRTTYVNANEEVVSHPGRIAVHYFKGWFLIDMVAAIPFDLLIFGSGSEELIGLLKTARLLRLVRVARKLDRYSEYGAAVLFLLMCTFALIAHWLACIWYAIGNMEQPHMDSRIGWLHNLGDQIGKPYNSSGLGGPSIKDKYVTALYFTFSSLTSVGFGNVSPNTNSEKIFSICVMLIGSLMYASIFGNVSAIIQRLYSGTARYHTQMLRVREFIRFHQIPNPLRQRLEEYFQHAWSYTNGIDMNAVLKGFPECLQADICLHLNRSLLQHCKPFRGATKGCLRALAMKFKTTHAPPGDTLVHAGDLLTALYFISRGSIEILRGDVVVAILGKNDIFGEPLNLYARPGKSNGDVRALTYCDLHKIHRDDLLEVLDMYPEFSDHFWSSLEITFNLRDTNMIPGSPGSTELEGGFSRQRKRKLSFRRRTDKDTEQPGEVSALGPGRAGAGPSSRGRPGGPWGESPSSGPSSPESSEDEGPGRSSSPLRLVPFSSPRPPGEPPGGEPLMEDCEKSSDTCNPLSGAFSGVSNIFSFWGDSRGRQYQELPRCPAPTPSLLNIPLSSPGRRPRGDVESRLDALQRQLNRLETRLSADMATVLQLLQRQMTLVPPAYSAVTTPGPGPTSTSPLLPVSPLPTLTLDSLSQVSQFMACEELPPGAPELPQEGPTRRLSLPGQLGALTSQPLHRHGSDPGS
Method: Experimental Example 2: Safety Test
The effect of test compounds on hERG potassium channel were determined using Predictor™ hERG Fluorescence Polarization Assay at concentrations of 3, 10, and 30 μM.

[4] = Pharmacokinetic study in rats, intravenous (IV) administration; assay type: in vivo; conditions: male, SD, rat, plasma, IV administration at 1 mg/kg
Method: (§2) Experimental Example 3: Pharmacokinetic Studies
(§3) To study the pharmacokinetic characteristics of test compounds, the test compounds were administrated by intravenous (IV) and gavage (PO) routes to male SD rats. The dosage for IV administration was 1 mg/kg, and that for PO administration was 0.5-5 mg/kg. The vehicle is 10% DMSO: 10% solutol: 80% physiological saline, or 5% DMSO: 5% solutol: 90% physiological saline, or 10% DMSO: 60% PEG: 30% physiological saline. Blood was collected at various time points after administration. Plasma samples were analyzed by LC-MS/MS after protein precipitation process with acetonitrile.

[5] = Pharmacokinetic study in rats, gavage (PO) administration; assay type: in vivo; conditions: male, SD, rat, plasma, po, gavage administration at 5 mg/kg, 0-24 h
Method: as §2, §3

[6] = Pharmacokinetic study in Rhesus monkeys, intravenous (IV) administration; assay type: in vivo; conditions: male, rhesus monkey, plasma, IV administration at 0.5 mg/kg
Method: To study the pharmacokinetic characteristics of test compounds, the test compounds were administrated by an intravenous (IV) route to male Rhesus monkeys. The dosage for IV administration was 0.5 mg/kg. Blood was collected at various time points after the IV administration. Plasma samples were analyzed by LC-MS/MS after protein precipitation process with acetonitrile. Pharmacokinetic parameters were calculated with a non-compartmental model by using WinNonlin 6.3 software.

[7] = Pharmacokinetic study in Rhesus monkeys, gavage (PO) administration; assay type: in vivo; conditions: male, rhesus monkey, plasma, PO administration at 1 mg/kg
Method: To study the pharmacokinetic characteristics of test compounds, the test compounds were administrated by a gavage (PO) route to male Rhesus monkeys. The dosage for PO administration was 1 mg/kg. Blood was collected at various time points after the PO administration. Plasma samples were analyzed by LC-MS/MS after protein precipitation process with acetonitrile. Pharmacokinetic parameters were calculated with a non-compartmental model by using WinNonlin 6.3 software.

[8] = system: Collagen-Induced Arthritis (CIA) Model in Rats; assay: In vivo efficacy in collagen-induced arthritis (CIA) model in rats; parameters: species or system Lewis rats; Mean arthritis score: scale not given here
Method: Experimental Example 4: In Vivo Efficacy in Collagen-Induced Arthritis (CIA) Model in Rats
A mixed emulsion of bovine type II collagen and incomplete Freund's adjuvant 1:1 was injected at the back and the tail tip (3 sites) in Lewis rats. After 14 days, the paw thickness and paw volume of the rats were measured, and the arthritis development was scored. The day before the administration was set as DO, the animals were grouped based on paw volume, and the test compounds (vehicle: 5% DMSO+5% solutol) were gavage administered once a day for two weeks. The paw thickness and paw volume of the rats were measured, and the arthritis development was scored.

[9] = D0 (day before administration), 10 mg/kg group
[10] = D11, 10 mg/kg gavage once a day
[11] = D15, 10 mg/kg gavage once a day

Sequence of JAK3 (P52333 whole entry): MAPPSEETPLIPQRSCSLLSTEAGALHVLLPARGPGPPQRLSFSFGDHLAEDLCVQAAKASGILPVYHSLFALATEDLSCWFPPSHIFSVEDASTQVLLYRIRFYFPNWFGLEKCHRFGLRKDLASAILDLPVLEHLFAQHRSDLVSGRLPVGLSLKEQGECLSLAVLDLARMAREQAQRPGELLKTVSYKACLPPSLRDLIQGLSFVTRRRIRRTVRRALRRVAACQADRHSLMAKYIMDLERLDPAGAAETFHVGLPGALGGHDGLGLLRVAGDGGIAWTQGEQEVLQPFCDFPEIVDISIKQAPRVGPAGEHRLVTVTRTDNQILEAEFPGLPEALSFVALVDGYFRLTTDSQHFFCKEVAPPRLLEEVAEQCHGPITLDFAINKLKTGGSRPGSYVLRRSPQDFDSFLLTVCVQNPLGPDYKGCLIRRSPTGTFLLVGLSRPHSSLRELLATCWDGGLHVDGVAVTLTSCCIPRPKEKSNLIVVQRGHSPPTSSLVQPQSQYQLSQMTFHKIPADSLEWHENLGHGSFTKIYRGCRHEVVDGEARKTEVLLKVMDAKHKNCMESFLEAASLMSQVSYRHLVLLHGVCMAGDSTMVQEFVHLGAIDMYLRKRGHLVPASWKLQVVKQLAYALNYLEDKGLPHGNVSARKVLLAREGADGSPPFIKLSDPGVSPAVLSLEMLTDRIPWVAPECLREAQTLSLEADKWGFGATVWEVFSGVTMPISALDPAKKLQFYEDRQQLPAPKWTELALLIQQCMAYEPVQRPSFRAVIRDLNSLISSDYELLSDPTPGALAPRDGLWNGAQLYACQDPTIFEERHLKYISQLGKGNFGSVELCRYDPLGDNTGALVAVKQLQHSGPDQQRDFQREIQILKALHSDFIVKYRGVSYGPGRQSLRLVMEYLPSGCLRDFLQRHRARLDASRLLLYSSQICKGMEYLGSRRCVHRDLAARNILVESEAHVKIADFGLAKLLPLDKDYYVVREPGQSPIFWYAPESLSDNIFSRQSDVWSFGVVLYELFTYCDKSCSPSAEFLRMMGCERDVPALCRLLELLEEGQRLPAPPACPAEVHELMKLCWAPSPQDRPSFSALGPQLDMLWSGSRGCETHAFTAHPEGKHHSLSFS

Q: For CCS(=O)(=O)N1CC(CC#N)(n2cc(-c3ccnc4[nH]ccc34)cn2)C1 [Compound 8, 2-(3-(4-(1H-pyrrolo[2,3-b]pyridin-4-yl)-1H-pyrazol-1-yl)-1-(ethylsulfonyl)azetidin-3-yl)acetonitrile], which IC50 [1] is on record?
A: 47.9 nM

Q: What about the IC50 [2] of the same compound?
A: 27.3 nM

Q: And the IC50 [3]?
A: > 30 µM

Q: What about the AUC(0-t) ([4]; 0-24 h) of the same compound?
A: 2.65 µg·h/mL

Q: What about the half-life ([4]; read-out: T½ (converted)) of the same compound?
A: 3.93 h

Q: And the AUC(0-t) [5]?
A: 14.1 µg·h/mL

Q: What about the half-life [6] of the same compound?
A: 5.29 h

Q: What about the bioavailability [7] of the same compound?
A: 78.6%

Q: And the AUC(0-t) ([7]; 0-24 h)?
A: 2.6 µg·h/mL

Q: And the half-life ([7]; read-out: T½ (converted))?
A: 2.68 h

Q: What about the Mean arthritis score [8, 9] of the same compound?
A: 2.63

Q: What about the “Mean paw thickness (mm)” value [8, 9] of the same compound?
A: 7.18 mm

Q: What about the “Mean paw volume” value [8, 9] of the same compound?
A: 1.71 mL

Q: And the Mean arthritis score ([8]; D4, 10 mg/kg gavage once a day)?
A: 1.38

Q: What about the “Mean paw thickness (mm)” value ([8]; D4, 10 mg/kg gavage once a day) of the same compound?
A: 6.04 mm

Q: And the “Mean paw volume” value ([8]; D4, 10 mg/kg gavage once a day)?
A: 1.47 mL

Q: What about the Mean arthritis score ([8]; D7, 10 mg/kg gavage once a day) of the same compound?
A: 1.00

Q: And the “Mean paw thickness (mm)” value ([8]; D7, 10 mg/kg gavage once a day)?
A: 5.67 mm

Q: And the “Mean paw volume” value ([8]; D7, 10 mg/kg gavage once a day)?
A: 1.41 mL

Q: And the Mean arthritis score [8, 10]?
A: 1.00

Q: What about the “Mean paw thickness (mm)” value [8, 10] of the same compound?
A: 5.56 mm

Q: What about the “Mean paw volume” value [8, 10] of the same compound?
A: 1.42 mL

Q: What about the Mean arthritis score [8, 11] of the same compound?
A: 1.13

Q: And the “Mean paw thickness (mm)” value [8, 11]?
A: 5.52 mm

Q: And the “Mean paw volume” value [8, 11]?
A: 1.48 mL
